In US20090191131A1, “USE OF PARTICULATE CONTRAST AGENTS IN DIAGNOSTIC IMAGING FOR STUDYING PHYSIOLOGICAL PARAMATERS” (priority 1998, published 2009):

Tests used:
[1] = Temperature sensitivity of in vitro T1 relaxivity (r1), 0.47 T; assay type: physicochemical
Excerpt: FIG. 1 of the accompanying drawings and Table 5 below show the temperature sensitivity of in vitro T1 relaxivity (r1) for liposome encapsulated GdDTPA-BMA and GdHPDO3A, respectively (0.47T).

[2] = cited from earlier work
[3] = phosphatidylcholines; cited from earlier work

| SMILES | Transition temperature Tc [3] [°C] | also measured |
| --- | --- | --- |
| CC(O)CN1CCN(CC(=O)[O-])CCN(CC(=O)[O-])CCN(CC(=O)[O-])CC1.[Gd+3] (stereo not shown) [Control, GdHPDO3A] |  | r1 ([1]; 20 °C): 4.53 s⁻¹ mM⁻¹; r1 ([1]; 25 °C): 4.27 s⁻¹ mM⁻¹; r1 ([1]; 30 °C): 3.94 s⁻¹ mM⁻¹; r1 ([1]; 37 °C): 3.75 s⁻¹ mM⁻¹; r1 ([1]; 45 °C): 3.07 s⁻¹ mM⁻¹; r1 ([1]; 55 °C): 2.82 s⁻¹ mM⁻¹; r1 ([1]; 60 °C): 2.54 s⁻¹ mM⁻¹ |
| CCCCCCCCCCCCOC(=O)C(C)n1ccnc1 (stereo not shown) [DIP] |  | pKa [2]: 6.8; charged form ([2]; lysosomal pH (5.2)): over 97%; non-ionized (non/low surfactant activity) form ([2]; pH 7.3-7.4 (physiological)): 80% |
| CCCCCCCCCCCCC(=O)OC[C@H](COP(=O)([O-])OCC[N+](C)(C)C)OC(=O)CCCCCCCCCCCC [PC 13:0] | 14 |  |
| CCCCCCCCCCCCCCCC(=O)O[C@H](COC(=O)CCCCCCCCCCCCC)COP(=O)([O-])OCC[N+](C)(C)C [PC 14:0-16:0] | 35 |  |
| CCCCCCCCCCCCCCCCCC(=O)O[C@H](COC(=O)CCCCCCCCCCCCC)COP(=O)([O-])OCC[N+](C)(C)C [PC 14:0-18:0] | 40 |  |
| CCCCCCCCCCCCCCC(=O)OC[C@H](COP(=O)([O-])OCC[N+](C)(C)C)OC(=O)CCCCCCCCCCCCCC [PC 15:0] | 33 |  |
| CCCCCCCCCCCCCCCCCC(=O)O[C@H](COC(=O)CCCCCCCCCCCCCCC)COP(=O)([O-])OCC[N+](C)(C)C [PC 16:0-18:0] | 49 |  |
| CCCCCCCCCCCCCCCCC(=O)OC[C@H](COP(=O)([O-])OCC[N+](C)(C)C)OC(=O)CCCCCCCCCCCCCCCC [PC 17:0] | 48 |  |
| CCCCCCCCCCCCCCCCCC(=O)OC[C@H](COP(=O)([O-])OCC[N+](C)(C)C)OC(=O)CCCCCCCCCCCCCCC [PC 18:0-16:0] | 44 |  |
| CCCCCCCCCCC/C=C\CCCCC(=O)OC[C@H](COP(=O)([O-])OCC[N+](C)(C)C)OC(=O)CCCC/C=C\CCCCCCCCCCC [PC 18:1c6] | 1 |  |
| CCCCCCCC/C=C\CCCCCCCC(=O)OC[C@H](COP(=O)([O-])OCC[N+](C)(C)C)OC(=O)CCCCCCC/C=C\CCCCCCCC [PC 18:1c9] | −20 |  |
| CCCCCCCC/C=C/CCCCCCCC(=O)OC[C@H](COP(=O)([O-])OCC[N+](C)(C)C)OC(=O)CCCCCCC/C=C/CCCCCCCC [PC 18:1t9] | 12 |  |
| CCCCCCCCCCCCCCCCCCCC(=O)OC[C@H](COP(=O)([O-])OCC[N+](C)(C)C)OC(=O)CCCCCCCCCCCCCCCCCCC [PC 20:0] | 66 |  |
| CCCCCCCCCCCCCCCCCCCCC(=O)OC[C@H](COP(=O)([O-])OCC[N+](C)(C)C)OC(=O)CCCCCCCCCCCCCCCCCCCC [PC 21:0] | 72 |  |
| CCCCCCCCCCCCCCCCCCCCCC(=O)OCC(COP(=O)([O-])OCC[N+](C)(C)C)OC(=O)CCCCCCCCCCCCCCCCCCCCC (stereo not shown) [PC 22:0, Dibehenoyl-PC] | 75 |  |
| CCCCCCCCCCCCCCCCCCCCCCC(=O)OC[C@H](COP(=O)([O-])OCC[N+](C)(C)C)OC(=O)CCCCCCCCCCCCCCCCCCCCCC [PC 23:0] | 79 |  |
| CCCCCCCCCCCCCCCCCCCCCCCC(=O)OC[C@H](COP(=O)([O-])OCC[N+](C)(C)C)OC(=O)CCCCCCCCCCCCCCCCCCCCCCC [PC 24:0] | 80 |  |
